Measured values taken from ChEMBL document CHEMBL1201862, “PubChem BioAssay data set” (2004).
Active and inactive are the calls of the source.

Columns and labels:
[1] = HIV-1 Env-mediated cell fusion inhibitors, dose response, CCR5-tropic Env (AID 2279); type: functional
[2] = cytotoxicity in HEK-293T cells, dose response, cytotoxicity control for BCR NF-kB inhibitor project, luminescence, B-cell screen hits (AID 489021); type: functional, cell-based;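 also: HEK-293T cells carrying an NF-kB luciferase reporter; cells exposed to compound for about 14 hours before viability readout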
HEK293 = test: Fluorescence-based counterscreen for potentiators or agonists of NPY-Y2: cell-based high-throughput dose response assay to identify inhibitors of cyclic nucleotide gated ion channel (CNGC) activity. In this assay, the parental HEK293 cell line transfected with a cyclic-nucleotide gated ion channel (CNGC)-based cAMP sensor is used to measure inhibition of isoproterenol-induced CNGC activity by test compound.; type: functional; conditions: Homo sapiens;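 also: stimulus is 1 µM isoproterenol at EC100 plus PDE inhibitor Ro 20-1724 at 25 µM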
[3] = molecular target: T1, Neuropeptide Y receptor type 1 (Homo sapiens, UniProt P25929); test: Fluorescence-based counterscreen for agonists of NPY-Y2: cell-based high-throughput dose response assay for agonists of NPY-Y1.; type: functional
T1 sequence (P25929 whole entry): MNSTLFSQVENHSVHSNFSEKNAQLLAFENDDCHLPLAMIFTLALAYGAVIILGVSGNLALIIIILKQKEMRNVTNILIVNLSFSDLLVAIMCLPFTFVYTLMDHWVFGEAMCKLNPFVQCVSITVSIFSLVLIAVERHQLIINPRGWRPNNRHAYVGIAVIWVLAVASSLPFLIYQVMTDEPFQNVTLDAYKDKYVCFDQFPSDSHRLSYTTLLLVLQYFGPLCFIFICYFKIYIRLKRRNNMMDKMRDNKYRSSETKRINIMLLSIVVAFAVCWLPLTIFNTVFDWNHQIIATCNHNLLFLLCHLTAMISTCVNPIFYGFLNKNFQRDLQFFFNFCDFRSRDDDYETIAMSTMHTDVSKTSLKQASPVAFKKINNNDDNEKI

[4] = molecular target: T2, Neuropeptide Y receptor type 2 (Homo sapiens, UniProt P49146); test: Fluorescence-based cell-based high-throughput dose response assay for agonists of NPY-Y2. [Related pubchem assays: 1703 (Screening assay (CNGC inhibitors).), 1359 (Screening assay (NPY-Y2 potentiators or agonists).), 1304 (Screening assay (NPY-Y1 potentiators or agonists).), 1710 (Screening assay (NPY-Y2 agonists).), 1791 (Summary AID.)]; type: functional
T2 sequence (P49146 whole entry): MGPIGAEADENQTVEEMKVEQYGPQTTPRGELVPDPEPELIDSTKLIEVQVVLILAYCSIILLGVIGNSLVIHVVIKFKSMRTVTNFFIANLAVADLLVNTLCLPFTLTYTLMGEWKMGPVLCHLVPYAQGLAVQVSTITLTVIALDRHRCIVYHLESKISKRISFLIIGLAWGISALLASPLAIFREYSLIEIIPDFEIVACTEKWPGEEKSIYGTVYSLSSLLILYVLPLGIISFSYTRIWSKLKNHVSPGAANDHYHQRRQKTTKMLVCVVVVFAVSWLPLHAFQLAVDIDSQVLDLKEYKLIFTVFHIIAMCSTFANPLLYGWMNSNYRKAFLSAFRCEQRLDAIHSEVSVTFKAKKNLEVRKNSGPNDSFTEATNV

[5] = ARNT/TACC3 interaction disruptors, potency, confirmation, biochemical, AlphaScreen, cherry-picked samples (AID 651703); type: functional, Homo sapiens;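 also: His-tagged ARNT PAS-B domain paired with GST-TACC3 E629A dimer coactivator fragment; potency of inhibitors that break up the complex and lower AlphaScreen signal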
[6] = molecular target: T3, Long-chain-fatty-acid--AMP ligase FadD28 (Mycobacterium tuberculosis, UniProt P9WQ59); test: Fluorescence polarization aasay to screen for inhibitors that compete for the binding of FadD28 to a bisubstrate Measured in Biochemical System Using Plate Reader - 2147-01_Inhibitor_Dose_CherryPick_Activity.; type: functional, Mycobacterium tuberculosis H37Rv
T3 sequence (P9WQ59 whole entry): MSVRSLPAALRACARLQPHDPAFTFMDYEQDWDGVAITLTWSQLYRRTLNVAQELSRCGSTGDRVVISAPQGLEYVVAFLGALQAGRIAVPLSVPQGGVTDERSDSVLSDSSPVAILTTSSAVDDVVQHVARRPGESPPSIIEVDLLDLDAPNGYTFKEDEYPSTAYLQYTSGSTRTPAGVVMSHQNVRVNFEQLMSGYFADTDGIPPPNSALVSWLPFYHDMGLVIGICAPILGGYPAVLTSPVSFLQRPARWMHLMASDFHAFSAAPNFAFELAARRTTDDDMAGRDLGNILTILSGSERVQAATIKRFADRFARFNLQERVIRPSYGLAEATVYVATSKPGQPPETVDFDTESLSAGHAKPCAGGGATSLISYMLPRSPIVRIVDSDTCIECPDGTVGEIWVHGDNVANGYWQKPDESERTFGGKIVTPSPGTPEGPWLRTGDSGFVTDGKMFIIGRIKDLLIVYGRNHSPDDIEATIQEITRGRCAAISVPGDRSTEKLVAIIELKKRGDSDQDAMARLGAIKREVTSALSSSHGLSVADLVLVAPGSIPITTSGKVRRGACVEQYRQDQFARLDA

Genome polyprotein [7] = molecular target: Genome polyprotein (dengue virus type 2, UniProt P29990); test: Dengue-2 NS5 methyltransferase inhibitors, primary screen, biochemical, confirmation dose response (AID 588689); type: functional
Vero = Vero cell cytotoxicity, cytotoxicity control for flavivirus capping enzyme inhibitors (AID 588742); type: functional; conditions: Chlorocebus sabaeus
Genome polyprotein [8] = molecular target: T4, Genome polyprotein (Hepatitis C virus, UniProt Q2Q167); test: HCV core protein dimerization inhibitors, dose response, biochemical, TR-FRET (AID 2159); set-up: species or system Hepacivirus hominis;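 also: blocks dimerization of HCV core protein measured by TR-FRET between tagged core106 pairs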
T4 sequence (Q2Q167 whole entry): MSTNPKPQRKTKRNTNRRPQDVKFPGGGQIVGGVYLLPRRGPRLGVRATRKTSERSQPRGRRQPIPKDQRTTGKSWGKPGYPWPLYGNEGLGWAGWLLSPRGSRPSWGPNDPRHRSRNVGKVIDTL

[9] = molecular target: T5, Induced myeloid leukemia cell differentiation protein Mcl-1 (Homo sapiens, UniProt Q07820); type: functional
T5 sequence (Q07820 whole entry): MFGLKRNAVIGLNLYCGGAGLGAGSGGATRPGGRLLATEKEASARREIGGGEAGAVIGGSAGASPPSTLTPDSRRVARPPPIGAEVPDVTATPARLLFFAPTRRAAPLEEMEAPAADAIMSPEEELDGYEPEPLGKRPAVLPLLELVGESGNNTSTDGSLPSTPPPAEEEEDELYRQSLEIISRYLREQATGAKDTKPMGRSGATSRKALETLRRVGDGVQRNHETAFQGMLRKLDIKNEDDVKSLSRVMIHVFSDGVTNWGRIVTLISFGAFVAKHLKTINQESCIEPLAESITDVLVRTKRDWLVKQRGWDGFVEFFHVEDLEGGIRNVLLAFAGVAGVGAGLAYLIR

Bcl-2-like protein 1 = Bcl-2-like protein 1 (Homo sapiens, UniProt Q07817); test: BCL-XL inhibitors, dose response, selectivity assay for MCL1 inhibitor project, biochemical, fluorescence polarization, 1536-well (AID 2218)
Sequence of Bcl-2-like protein 1 (Q07817 whole entry): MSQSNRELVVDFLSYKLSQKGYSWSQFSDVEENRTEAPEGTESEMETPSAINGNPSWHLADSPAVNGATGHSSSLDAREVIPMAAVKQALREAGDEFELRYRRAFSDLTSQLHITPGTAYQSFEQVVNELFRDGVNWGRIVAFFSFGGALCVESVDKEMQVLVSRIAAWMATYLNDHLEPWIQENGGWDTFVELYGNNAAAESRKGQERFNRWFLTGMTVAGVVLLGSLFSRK

[10] = molecular target: Eukaryotic translation initiation factor 4E (Mus musculus, UniProt P63073); test: eIF4E–eIF4G protein interaction inhibitors, dose response, biochemical, TR-FRET (AID 855); type: functional;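 also: potency for disrupting eIF4E binding to eIF4GI seen as loss of FRET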
Sequence of Eukaryotic translation initiation factor 4E (P63073 whole entry): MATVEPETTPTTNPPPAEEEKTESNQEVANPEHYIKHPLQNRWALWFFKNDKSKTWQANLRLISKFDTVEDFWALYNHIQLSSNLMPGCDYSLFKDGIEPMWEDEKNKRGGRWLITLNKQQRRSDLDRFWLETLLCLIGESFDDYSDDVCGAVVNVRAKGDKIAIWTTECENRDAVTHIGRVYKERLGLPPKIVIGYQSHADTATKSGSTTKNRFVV

[11] = molecular target: T5, Induced myeloid leukemia cell differentiation protein Mcl-1; test: MCL1-BIM BH3 interaction inhibitors, dose response, biochemical, fluorescence polarization, BIM-BH3 peptide, 1536-well (AID 2217)
fMet-Leu-Phe receptor = fMet-Leu-Phe receptor (Homo sapiens, UniProt P21462); test: FPR ligands, dose response (AID 519); type: functional
Sequence of fMet-Leu-Phe receptor (P21462 whole entry): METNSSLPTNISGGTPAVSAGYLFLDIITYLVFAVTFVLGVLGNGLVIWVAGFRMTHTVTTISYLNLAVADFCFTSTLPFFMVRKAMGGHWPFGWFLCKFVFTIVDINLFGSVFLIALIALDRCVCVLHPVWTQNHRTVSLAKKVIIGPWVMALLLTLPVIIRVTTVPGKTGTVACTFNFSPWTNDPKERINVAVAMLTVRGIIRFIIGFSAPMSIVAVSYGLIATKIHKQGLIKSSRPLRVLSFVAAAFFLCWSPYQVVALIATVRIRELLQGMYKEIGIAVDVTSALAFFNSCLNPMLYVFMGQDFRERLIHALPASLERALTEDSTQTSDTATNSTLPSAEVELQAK

[12] = molecular target: Peroxisome proliferator-activated receptor gamma/Nuclear receptor coactivator 3 (Homo sapiens, UniProt P37231); type: functional;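 also: agonist potency for raising coactivator recruitment to the receptor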
Sequence of Peroxisome proliferator-activated receptor gamma/Nuclear receptor coactivator 3 (P37231 whole entry): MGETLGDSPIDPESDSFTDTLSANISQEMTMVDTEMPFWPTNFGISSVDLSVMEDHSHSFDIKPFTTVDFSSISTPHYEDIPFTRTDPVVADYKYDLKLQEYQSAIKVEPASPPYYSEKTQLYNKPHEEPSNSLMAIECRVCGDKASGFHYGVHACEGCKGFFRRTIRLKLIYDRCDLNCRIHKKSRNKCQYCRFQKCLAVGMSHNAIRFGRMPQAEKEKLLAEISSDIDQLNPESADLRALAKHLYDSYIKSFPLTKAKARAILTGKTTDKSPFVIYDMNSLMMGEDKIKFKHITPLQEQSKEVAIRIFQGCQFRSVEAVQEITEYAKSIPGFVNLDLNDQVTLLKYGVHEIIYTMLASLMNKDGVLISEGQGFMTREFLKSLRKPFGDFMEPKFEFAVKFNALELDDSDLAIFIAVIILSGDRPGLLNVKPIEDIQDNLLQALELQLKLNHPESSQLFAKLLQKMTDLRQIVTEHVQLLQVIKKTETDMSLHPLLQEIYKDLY
Sequence of Peroxisome proliferator-activated receptor gamma/Nuclear receptor coactivator 3 (Q9Y6Q9 whole entry, further chain): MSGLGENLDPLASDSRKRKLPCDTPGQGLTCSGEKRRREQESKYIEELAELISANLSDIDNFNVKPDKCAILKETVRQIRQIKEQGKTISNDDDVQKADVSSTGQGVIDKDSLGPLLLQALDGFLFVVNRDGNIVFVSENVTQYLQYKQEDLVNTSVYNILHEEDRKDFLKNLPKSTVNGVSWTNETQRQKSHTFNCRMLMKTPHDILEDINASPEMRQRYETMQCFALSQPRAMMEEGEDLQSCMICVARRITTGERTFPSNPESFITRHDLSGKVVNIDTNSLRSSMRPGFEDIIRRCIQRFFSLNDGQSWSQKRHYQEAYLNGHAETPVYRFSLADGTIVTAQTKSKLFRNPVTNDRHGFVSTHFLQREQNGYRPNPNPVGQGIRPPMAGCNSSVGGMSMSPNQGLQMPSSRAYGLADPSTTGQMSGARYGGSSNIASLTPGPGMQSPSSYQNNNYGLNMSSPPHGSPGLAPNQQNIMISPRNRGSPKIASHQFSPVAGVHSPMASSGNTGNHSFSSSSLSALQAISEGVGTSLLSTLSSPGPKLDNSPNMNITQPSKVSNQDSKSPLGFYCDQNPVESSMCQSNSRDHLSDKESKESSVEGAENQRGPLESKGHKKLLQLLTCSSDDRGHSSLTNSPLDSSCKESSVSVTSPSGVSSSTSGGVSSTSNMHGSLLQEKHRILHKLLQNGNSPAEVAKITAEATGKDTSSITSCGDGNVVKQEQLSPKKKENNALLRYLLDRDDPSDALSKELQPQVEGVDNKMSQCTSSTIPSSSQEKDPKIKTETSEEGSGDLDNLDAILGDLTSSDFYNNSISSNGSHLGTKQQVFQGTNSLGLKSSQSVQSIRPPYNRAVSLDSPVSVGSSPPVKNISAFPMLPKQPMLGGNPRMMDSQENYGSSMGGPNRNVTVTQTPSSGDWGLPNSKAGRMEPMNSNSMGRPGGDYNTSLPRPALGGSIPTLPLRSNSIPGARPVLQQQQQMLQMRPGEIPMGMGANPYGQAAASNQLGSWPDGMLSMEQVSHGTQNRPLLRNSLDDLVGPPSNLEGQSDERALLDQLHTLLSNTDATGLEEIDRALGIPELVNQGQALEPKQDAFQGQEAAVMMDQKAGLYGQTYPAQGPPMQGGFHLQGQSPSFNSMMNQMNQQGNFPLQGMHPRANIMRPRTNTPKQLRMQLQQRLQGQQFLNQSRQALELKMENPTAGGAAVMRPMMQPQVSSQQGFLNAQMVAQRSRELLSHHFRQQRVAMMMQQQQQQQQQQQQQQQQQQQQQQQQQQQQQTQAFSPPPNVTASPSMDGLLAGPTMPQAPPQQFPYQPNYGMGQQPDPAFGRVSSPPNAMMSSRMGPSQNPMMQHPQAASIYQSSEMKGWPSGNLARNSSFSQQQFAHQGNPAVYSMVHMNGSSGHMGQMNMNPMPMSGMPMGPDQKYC

[13] = molecular target: Peroxisome proliferator-activated receptor gamma/Nuclear receptor coactivator 1 (Homo sapiens, UniProt P37231); type: functional;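 also: agonist potency as compounds enhance coactivator SRC-1 recruitment to PPARgamma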
[14] = molecular target: Peroxisome proliferator-activated receptor gamma/Nuclear receptor coactivator 2 (Homo sapiens, UniProt P37231); type: functional;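 also: agonist potency for raising coactivator recruitment to the receptor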
Sequence of Peroxisome proliferator-activated receptor gamma/Nuclear receptor coactivator 2 (P37231 whole entry): as the sequence (P37231 whole entry) above
Sequence of Peroxisome proliferator-activated receptor gamma/Nuclear receptor coactivator 2 (Q15596 whole entry, further chain): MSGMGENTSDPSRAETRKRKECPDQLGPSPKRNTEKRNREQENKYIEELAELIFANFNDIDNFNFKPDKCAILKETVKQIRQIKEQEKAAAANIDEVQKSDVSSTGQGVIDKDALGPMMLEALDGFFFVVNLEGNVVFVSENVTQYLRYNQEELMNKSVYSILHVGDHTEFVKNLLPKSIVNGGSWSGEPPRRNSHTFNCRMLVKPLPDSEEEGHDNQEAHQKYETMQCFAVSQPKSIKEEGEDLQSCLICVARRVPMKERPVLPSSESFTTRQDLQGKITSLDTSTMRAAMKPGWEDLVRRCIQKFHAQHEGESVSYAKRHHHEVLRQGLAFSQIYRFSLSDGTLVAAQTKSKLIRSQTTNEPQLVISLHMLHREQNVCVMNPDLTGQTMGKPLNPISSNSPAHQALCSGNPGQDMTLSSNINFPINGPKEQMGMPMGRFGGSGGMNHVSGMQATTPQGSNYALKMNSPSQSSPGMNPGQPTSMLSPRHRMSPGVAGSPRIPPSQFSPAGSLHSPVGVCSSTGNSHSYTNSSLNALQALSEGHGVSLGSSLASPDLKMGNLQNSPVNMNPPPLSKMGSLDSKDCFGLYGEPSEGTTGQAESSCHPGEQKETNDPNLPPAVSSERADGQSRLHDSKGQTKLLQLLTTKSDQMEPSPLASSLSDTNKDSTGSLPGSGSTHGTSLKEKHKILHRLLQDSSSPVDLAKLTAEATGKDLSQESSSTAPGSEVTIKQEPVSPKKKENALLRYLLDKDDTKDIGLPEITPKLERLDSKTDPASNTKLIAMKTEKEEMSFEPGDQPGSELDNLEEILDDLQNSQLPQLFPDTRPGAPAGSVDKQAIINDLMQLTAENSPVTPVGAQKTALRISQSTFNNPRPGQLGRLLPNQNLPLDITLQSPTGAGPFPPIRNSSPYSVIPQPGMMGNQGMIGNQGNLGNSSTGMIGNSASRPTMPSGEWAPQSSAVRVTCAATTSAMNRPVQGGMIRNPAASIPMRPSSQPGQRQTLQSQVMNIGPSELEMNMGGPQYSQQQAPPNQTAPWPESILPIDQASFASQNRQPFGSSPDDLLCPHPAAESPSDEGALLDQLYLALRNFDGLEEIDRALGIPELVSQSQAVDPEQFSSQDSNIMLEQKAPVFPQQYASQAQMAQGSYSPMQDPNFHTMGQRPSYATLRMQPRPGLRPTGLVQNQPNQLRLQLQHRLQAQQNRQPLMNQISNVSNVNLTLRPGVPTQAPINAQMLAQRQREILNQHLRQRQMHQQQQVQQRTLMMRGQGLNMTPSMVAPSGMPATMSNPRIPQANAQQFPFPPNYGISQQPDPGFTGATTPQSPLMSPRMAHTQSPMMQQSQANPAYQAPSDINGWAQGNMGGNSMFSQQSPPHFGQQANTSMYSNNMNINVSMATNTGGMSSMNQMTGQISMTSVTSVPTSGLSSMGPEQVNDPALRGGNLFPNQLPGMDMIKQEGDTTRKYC

COCCN1C(=O)/C(=C/c2ccc(OCc3ccc(C(=O)O)cc3)c(OC)c2)S/C1=N\c1ccccc1
IC50 [1]: 40.2 µM (active)

CC(=C/c1ccco1)/C=N/NC(=O)CSc1nnc(SCc2ccc(C)cc2)s1
IC50 [2]: > 80 µM (inactive)

O=[N+]([O-])c1cccc2c(N3CCOCC3)ccnc12
EC50 (HEK293): > 35.4 µM (not active)
EC50 [3]: > 35.4 µM (not active)
EC50 [4]: > 35.4 µM (not active)

CC(C(=O)Nc1ccc(O)c(C(=O)O)c1)N1C(=O)/C(=C/c2cccs2)SC1=S (configuration not stated)
AC50 [5]: 132 µM (active)
AC50 [6]: > 100 µM (inactive)
IC50 (Genome polyprotein [7]): 41.1 µM (active)
IC50 [1]: > 50 µM (active)
CC50 (Vero): > 40 µM (active)

COc1ccc(Cc2nnc(NC(=O)Cc3cccs3)s2)cc1OC
IC50 (Genome polyprotein [8]): > 49.8 µM (not active)
IC50 [9]: 1.97 µM (active)
IC50 (Bcl-2-like protein 1): > 109 µM (not active)
IC50 [10]: 19.1 µM (active)
IC50 [11]: 5.14 µM (active)

O=C(O)C1CC=CCC1C(=O)N1CCN(c2nc(-c3ccccc3)c3ccccc3n2)CC1 (configuration not stated)
Ki (fMet-Leu-Phe receptor): > 66.7 µM (inactive)
EC50 (HEK293): > 3.94 µM (active)
EC50 [3]: 22 µM (not active)
EC50 [4]: > 35.4 µM (not active)

O=C(N/N=C/c1cnc(N2CCCCC2)s1)c1ccc(Cl)cc1
EC50 [12]: > 79.4 µM (not active)
EC50 [13]: > 79.4 µM (not active)
EC50 [14]: > 79.4 µM (not active)
